Test [1] addresses T1, hTAS1R2 + hTAS1R3 C801L^7.39 (Homo sapiens, UniProt Q7RTX0+Q8TE23, C801L).
T1 construct: expressed in transfected cells; host or cells: HEK293T cells stably expressing G16Gust44
T1 sequence (Q7RTX0 21-852 C801L): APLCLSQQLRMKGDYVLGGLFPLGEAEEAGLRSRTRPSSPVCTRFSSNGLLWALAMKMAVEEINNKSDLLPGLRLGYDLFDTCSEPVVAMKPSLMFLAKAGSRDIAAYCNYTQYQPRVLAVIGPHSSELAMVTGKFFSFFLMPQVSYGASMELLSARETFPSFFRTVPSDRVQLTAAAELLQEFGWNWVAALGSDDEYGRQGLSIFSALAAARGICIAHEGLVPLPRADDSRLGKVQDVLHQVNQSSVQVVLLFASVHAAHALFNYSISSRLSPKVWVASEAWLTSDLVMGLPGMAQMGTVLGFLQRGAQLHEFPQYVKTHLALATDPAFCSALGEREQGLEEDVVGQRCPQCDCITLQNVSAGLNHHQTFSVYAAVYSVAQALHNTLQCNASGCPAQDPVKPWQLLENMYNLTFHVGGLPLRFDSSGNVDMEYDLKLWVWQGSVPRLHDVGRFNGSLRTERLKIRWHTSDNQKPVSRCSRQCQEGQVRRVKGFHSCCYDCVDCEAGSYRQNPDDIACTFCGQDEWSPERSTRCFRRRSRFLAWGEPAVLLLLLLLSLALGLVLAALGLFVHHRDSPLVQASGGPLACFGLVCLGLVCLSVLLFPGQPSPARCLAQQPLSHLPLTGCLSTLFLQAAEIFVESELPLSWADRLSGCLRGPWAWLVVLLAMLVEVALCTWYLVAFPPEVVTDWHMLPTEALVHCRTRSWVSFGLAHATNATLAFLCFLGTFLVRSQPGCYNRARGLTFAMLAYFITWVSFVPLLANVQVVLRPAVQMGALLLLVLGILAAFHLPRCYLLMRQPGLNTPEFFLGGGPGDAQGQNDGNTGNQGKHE
T1 sequence (Q8TE23 20-839): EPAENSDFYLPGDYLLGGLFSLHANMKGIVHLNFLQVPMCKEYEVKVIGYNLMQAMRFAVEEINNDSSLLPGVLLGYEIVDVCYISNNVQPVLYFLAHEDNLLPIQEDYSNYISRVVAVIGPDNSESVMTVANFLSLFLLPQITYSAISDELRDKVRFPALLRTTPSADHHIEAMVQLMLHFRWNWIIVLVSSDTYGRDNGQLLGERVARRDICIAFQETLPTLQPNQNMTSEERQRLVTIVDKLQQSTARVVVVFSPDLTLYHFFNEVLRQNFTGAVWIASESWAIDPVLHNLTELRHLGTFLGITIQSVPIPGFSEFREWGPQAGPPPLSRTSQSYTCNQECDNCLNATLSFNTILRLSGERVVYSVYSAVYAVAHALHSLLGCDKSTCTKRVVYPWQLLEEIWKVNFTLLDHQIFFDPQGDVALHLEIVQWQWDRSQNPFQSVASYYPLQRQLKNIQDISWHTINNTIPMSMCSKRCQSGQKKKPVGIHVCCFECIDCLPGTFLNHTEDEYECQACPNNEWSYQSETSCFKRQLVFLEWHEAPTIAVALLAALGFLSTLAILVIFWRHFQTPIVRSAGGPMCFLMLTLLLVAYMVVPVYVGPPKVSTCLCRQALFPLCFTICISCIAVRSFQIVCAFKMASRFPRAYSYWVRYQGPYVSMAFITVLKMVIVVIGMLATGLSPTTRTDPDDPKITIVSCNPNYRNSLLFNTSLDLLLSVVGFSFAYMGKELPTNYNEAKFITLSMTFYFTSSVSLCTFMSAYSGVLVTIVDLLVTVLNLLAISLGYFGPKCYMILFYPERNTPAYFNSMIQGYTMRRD
The test can be described thus: Calcium response (FLIPR), hTAS1R3 mutant coexpressed with hTAS1R2. The format is cell-based. The settings on record: for receptor activation: mutant C801L^7.39; for EC50: variant C801L^7.39, n.f. = no response to any tested sweetener. The protocol:
(§1) The cDNAs for TAS1Rs tagged at the C-terminus with the herpes simplex virus glycoprotein D (HSV) were transiently transfected into HEK293T cells stably expressing the chimeric G-protein subunit G16Gust44 [44] using Lipofectamine 2000 (Invitrogen, Carlsbad, CA) according to the manufacturer's protocol. 3–4 hours after transfection, DMEM was replaced by low-glucose DMEM supplemented with GlutaMAX and 10% dialyzed FBS (Invitrogen, Carlsbad, CA). 24 h post transfection, cells were loaded for 1 h with the calcium sensitive dye Fluo4-AM (2 μg/ml in DMEM, Molecular Probes, Carlsbad, CA). […] We monitored calcium mobilization following receptor stimulation with sweet tastants by an automated fluorometric imaging plate reader (FLIPR, Molecular Devices, Sunnyvale, CA). Compounds used as stimuli (Sigma-Aldrich, St. Louis, MO; Merck, Whitehouse Station, NJ) were dissolved in C1 solution. All data were collected from at least three independent experiments carried out in duplicate. The obtained calcium signals were corrected for the response of mock transfected cells and normalized to the fluorescence of cells prior to the application of the stimulus using ΔF/F = (F-F0)/F0.

Test [2] addresses T2, hTAS1R2 + hTAS1R3 H734A^5.47 (Homo sapiens, UniProt Q7RTX0+Q8TE23, H734A).
T2 construct: expressed in transfected cells; host or cells: HEK293T cells stably expressing G16Gust44
T2 sequence (Q8TE23 20-839): T1 sequence (Q8TE23 20-839)
T2 sequence (Q7RTX0 21-852 H734A): T1 sequence (Q7RTX0 21-852 C801L) with H714A, L781C
The description is as above. The settings on record: for receptor response: mutant H734A^5.47; for EC50: variant H734A^5.47, n.f. = no response to any tested sweetener. The format is cell-based. The protocol:
as §1

Numbering of substitutions follows the chain as printed. Where a SMILES comes first, the peptide text is derived from it.

Take `COc1ccc(CCC(=O)c2c(O)cc(O[C@@H]3O[C@H](CO)[C@@H](O)[C@H](O)[C@H]3O[C@@H]3O[C@@H](C)[C@H](O)[C@@H](O)[C@H]3O)cc2O)cc1O` [NHDC, neohesperidin dihydrochalcone]: in test [1], the receptor activation result is reported as “could not be activated” and the EC50 entry is on record as “n.f”. In test [2], the receptor response entry is reported as “did not respond” and the EC50 entry is listed as “n.f”.

On to `CC1=CC(=O)NS(=O)(=O)O1` [acesulfame K], for which the receptor activation result in test [1] was “could not be activated”. Moreover, the receptor response result in test [2] is “did not respond”.

Regarding `COC(=O)[C@H](Cc1ccccc1)NC(=O)[C@@H](N)CC(=O)O` [aspartame] (HELM PEPTIDE1{D.F.[CO[*:1]]}$$$$V2.0), in test [1], the receptor activation entry was “could not be activated” and the EC50 result is given as “n.f”. Also, in test [2], the receptor response result is listed as “did not respond” and the EC50 entry is “n.f”.

Take `O=S(=O)(O)NC1CCCCC1` [cyclamate]: the receptor activation entry in test [1] is “could not be activated”. The receptor response entry in test [2] is recorded as “did not respond”.
